Data published in patent publication US5385910A, “Gem-distributed esters of rapamycin” (American Home Products Corporation, priority 1993, dated 1995).
Values joined by “and” are separate entries in the source; they are usually repeats but may differ in a detail not shown here. Identical values can stand only once. Counter-ions that a name gives are not always drawn. Like-named read-outs stand apart in the source and are kept apart here.

What was measured:
[1] = system: pinch skin graft from male BALB/c donors transplanted to male C3 H(H-2K) recipients; test: pinch skin graft survival test procedure; format: in vivo, C3 H(H-2K) recipients (mice); settings: for Skin graft survival time (mean survival time ± S.D.): 4 mg/kg, intraperitoneally or orally, untreated grafts rejected within 6-7 days
Protocol: Representative compounds of this invention were also evaluated in an in vivo test procedure designed to determine the survival time of pinch skin graft from male BALB/c donors transplanted to male C3 H(H-2K) recipients. […] Briefly, a pinch skin graft from the donor was grafted on the dorsum of the recipient as a allograft, and an isograft was used as control in the same region. The recipients were treated with either varying concentrations of test compounds intraperitoneally or orally. Rapamycin was used as a test control. Untreated recipients serve as rejection control. The graft was monitored daily and observations were recorded until the graft became dry and formed a blackened scab. This was considered as the rejection day. The mean graft survival time (number of days±S.D.) of the drug treatment group was compared with the control group. […] Results are expressed as the mean survival time in days. Untreated (control) pinch skin grafts are usually rejected within 6-7 days. Compounds were tested using a dose of 4 mg/kg.

[2] = system: thymus cells of normal BALB/c mice (PHA and IL-1 induced lymphocyte proliferation); test: comitogen-induced thymocyte proliferation procedure (LAF); format: cell-based; settings: for IC50: read-out: LAF IC50
Protocol: (§1) Immunosuppressive activity for representative compounds of this invention was evaluated in an in vitro standard pharmacological test procedure to measure lymphocyte proliferation (LAF) and in three in vivo standard pharmacological test procedures. The pinch skin graft test procedure measures the immunosuppressive activity of the compound tested as well as the ability of the compound tested to inhibit or treat transplant rejection. The adjuvant arthritis standard pharmacological test procedure, which measures the ability of the compound tested to inhibit immune mediated inflammation. The adjuvant arthritis test procedure is a standard pharmacological test procedure for rheumatoid arthritis. Representative compounds of this invention were also evaluated in a heart allograft standard pharmacological test procedure which measures immunosuppressive activity of the compound tested as well as the ability of the compound tested to inhibit or treat transplant rejection. The procedures for these standard pharmacological test procedures are provided below.
The comitogen-induced thymocyte proliferation procedure (LAF) was used as an in vitro measure of the immunosuppressive effects of representative compounds. Briefly, cells from the thymus of normal BALB/c mice are cultured for 72 hours with PHA and IL-1 and pulsed with tritiated thymidine during the last six hours. Cells are cultured with and without various concentrations of rapamycin, cyclosporin A, or test compound. Cells are harvested and incorporated radioactivity is determined. Inhibition of lymphoproliferation is assessed as percent change in counts per minute from non-drug treated controls. For each compound evaluated, rapamycin was also evaluated for the purpose of comparison. An IC50 was obtained for each test compound as well as for rapamycin. […] The results obtained are provided as an IC50.

[3] = system: heart allograft from BN rat neonate donors in Lewis rats; test: heterotropic heart allograft standard pharmacological test procedure; format: in vivo; settings: 300 μg/day, i.p.; untreated allografts rejected in about 9-10 days
Protocol: as §1
The ability of the compounds of this invention to induce immunosuppression and inhibit or treat transplantation rejection was evaluated in a heterotropic heart allograft standard pharmacological test procedure that emulates transplantation rejection that occurs in humans. The following briefly describes the procedure that was used. […]

[4] = system: Freud's Complete Adjuvant induced arthritis in rats; test: adjuvant arthritis standard pharmacological test procedure; format: in vivo, male inbread Wistar Lewis rats; settings: 5 mg/kg oral, 7 doses, day 16; more negative = more potent
Protocol: as §1, with “The procedures for these standard pharmacological test procedures are provided below.” left out
The adjuvant arthritis standard pharmacological test procedure measures the ability of test compounds to prevent immune mediated inflammation and inhibit or treat rheumatoid arthritis. […] Both hind paws are measured on days 16, 23, and 30. The difference in paw volume (mL) from day 16 to day 0 is determined and a percent change from control is obtained. […]

adjuvant arthritis = settings: model for rheumatoid arthritis; cited from earlier work
IgE-like antibodies = settings: cited from earlier work
[5] = system: experimental allergic encephalomyelitis; settings: model for multiple sclerosis; cited from earlier work
Candida albicans = settings: in vitro and in vivo, particularly against Candida albicans; cited from earlier work
[6] = thymocytes cultured 72 hours with PHA and IL-1, tritiated thymidine last six hours, hydrochloride salt
[7] = thymocytes cultured 72 hours with PHA and IL-1, tritiated thymidine last six hours, maleate salt
[8] = thymocytes cultured 72 hours with PHA and IL-1, tritiated thymidine last six hours

In the case of `CO[C@H]1C[C@@H]2CC[C@@H](C)[C@@](O)(O2)C(=O)C(=O)N2CCCC[C@H]2C(=O)O[C@H]([C@H](C)C[C@@H]2CCC(=O)[C@H](OC)C2)CC(=O)[C@H](C)/C=C(\C)[C@@H](OC(=O)CN(C)C)[C@@H](OC)C(=O)[C@H](C)C[C@H](C)/C=C/C=C/C=C/1C` [Example 2, 42-Oxorapamycin-31-ester with 31-N,N-dimethylglycine hydrochloride salt], the “Skin graft survival time (mean survival time ± S.D.)” value (shortened to “Skin graft survival time”) ([1]; hydrochloride salt) is reported as 10.0 ± 0.0 days and 10.3 ± 0.5 days and the IC50 [2, 6] is reported as 23.4 nM.
With `CO[C@H]1C[C@@H]2CC[C@@H](C)[C@@](O)(O2)C(=O)C(=O)N2CCCC[C@H]2C(=O)O[C@H]([C@H](C)C[C@@H]2CC[C@@H](OC(=O)C(C)(C)N)[C@H](OC)C2)CC(=O)[C@H](C)/C=C(\C)[C@@H](O)[C@@H](OC)C(=O)[C@H](C)C[C@H](C)/C=C/C=C/C=C/1C` [Example 5, Rapamycin 42-ester with 2-amino-2-methylpropionic acid] the “Skin graft survival time” value [1] was 12.3 ± 1.0 days and 11.8 ± 1.3 days.
With `CO[C@H]1C[C@@H]2CC[C@@H](C)[C@@](O)(O2)C(=O)C(=O)N2CCCC[C@H]2C(=O)O[C@H]([C@H](C)C[C@@H]2CC[C@@H](OC(=O)C3(N)CCCCC3)[C@H](OC)C2)CC(=O)[C@H](C)/C=C(\C)[C@@H](O)[C@@H](OC)C(=O)[C@H](C)C[C@H](C)/C=C/C=C/C=C/1C` [Example 15, Rapamycin 42-ester with 1-aminocyclohexane carboxylic acid hydrochloride salt] the “Skin graft survival time” value ([1]; hydrochloride salt) was 11.5 ± 1.2 days and 11.2 ± 0.8 days and the IC50 [2, 6] was 0.7 nM and 0.4 nM.
With `CO[C@H]1C[C@@H]2CC[C@@H](C)[C@@](O)(O2)C(=O)C(=O)N2CCCC[C@H]2C(=O)O[C@H]([C@H](C)C[C@@H]2CC[C@@H](OC(=O)C(C)(C)N)[C@H](OC)C2)CC(=O)[C@H](C)/C=C(\C)[C@@H](O)[C@@H](OC)C(=O)[C@H](C)C[C@H](C)/C=C/C=C/C=C/1C` [Example 7, Rapamycin 42-ester with 2-amino-2,-methylpropionic acid hydrochloride salt] the “Skin graft survival time” value ([1]; hydrochloride salt) was 10.2 ± 1.2 days and the IC50 [2, 6] was 3.9 nM.
In the case of `CO[C@H]1C[C@@H]2CC[C@@H](C)[C@@](O)(O2)C(=O)C(=O)N2CCCC[C@H]2C(=O)O[C@H]([C@H](C)C[C@@H]2CC[C@@H](OC(=O)C(C)(C)NC(=O)OCC3c4ccccc4-c4ccccc43)[C@H](OC)C2)CC(=O)[C@H](C)/C=C(\C)[C@@H](O)[C@@H](OC)C(=O)[C@H](C)C[C@H](C)/C=C/C=C/C=C/1C` [Example 4, Rapamycin 42-ester with 2-(9H-fluoren-9-ylmethoxycarbonylamino)-2-methylpropionic acid], the “Skin graft survival time” value [1] is reported as 11.7 ± 0.8 days and 14.2 ± 0.6 days, the “immunosuppressive activity in the skin graft procedure (in words)” value ([1]; mouse, in vivo) is reported as “shown to have immunosuppressive activity” and the “immunosuppressive activity in the LAF procedure (in words)” value [2] is reported as “shown to have immunosuppressive activity”.
In the case of `CO[C@H]1C[C@@H]2CC[C@@H](C)[C@@](O)(O2)C(=O)C(=O)N2CCCC[C@H]2C(=O)O[C@H]([C@H](C)C[C@@H]2CC[C@@H](OC(=O)C3(N)CCCCC3)[C@H](OC)C2)CC(=O)[C@H](C)/C=C(\C)[C@@H](O)[C@@H](OC)C(=O)[C@H](C)C[C@H](C)/C=C/C=C/C=C/1C` [Example 14, Rapamycin 42-ester with 1-aminocyclohexane carboxylic acid], the “Skin graft survival time” value [1] is reported as 10.6 ± 0.5 days and 12.4 ± 1.1 days.
With `CO[C@H]1C[C@@H]2CC[C@@H](C)[C@@](O)(O2)C(=O)C(=O)N2CCCC[C@H]2C(=O)O[C@H]([C@H](C)C[C@@H]2CC[C@@H](OC(=O)C3(N)CCCC3)[C@H](OC)C2)CC(=O)[C@H](C)/C=C(\C)[C@@H](O)[C@@H](OC)C(=O)[C@H](C)C[C@H](C)/C=C/C=C/C=C/1C` [Example 11, Rapamycin 42-ester with 1-aminocyclopentane carboxylic acid hydrochloride salt] the “Skin graft survival time” value ([1]; hydrochloride salt) was 10.3 ± 0.5 days and 11.5 ± 0.8 days and 12.3 ± 1.0 days and the IC50 [2, 6] was 0.63 nM.
In the case of `CO[C@H]1C[C@@H]2CC[C@@H](C)[C@@](O)(O2)C(=O)C(=O)N2CCCC[C@H]2C(=O)O[C@H]([C@H](C)C[C@@H]2CC[C@@H](OC(=O)C(C)(C)N)[C@H](OC)C2)CC(=O)[C@H](C)/C=C(\C)[C@@H](O)[C@@H](OC)C(=O)[C@H](C)C[C@H](C)/C=C/C=C/C=C/1C` [Example 6, Rapamycin 42-ester with 2-amino-2-methylpropionic acid maleate salt], the “Skin graft survival time” value ([1]; maleate salt) is reported as 12.0 ± 0.0 days and 11.0 ± 0.9 days, the IC50 [2, 7] is reported as 5.3 nM and 8.4 nM and the “Heart allograft survival time (mean)” value [3] is reported as 19.11 days. The “Percent change in adjuvant arthritis versus control (uninjected paw)” value [4] was -73%.
For `CO[C@H]1C[C@@H]2CC[C@@H](C)[C@@](O)(O2)C(=O)C(=O)N2CCCC[C@H]2C(=O)O[C@H]([C@H](C)C[C@@H]2CCC(=O)[C@H](OC)C2)CC(=O)[C@H](C)/C=C(\C)[C@@H](OC(=O)CN(C)C)[C@@H](OC)C(=O)[C@H](C)C[C@H](C)/C=C/C=C/C=C/1C` [Example 1, 42-Oxorapamycin-31-ester with 31-N,N-dimethylglycine], the “Skin graft survival time” value [1] was 9.6 ± 0.9 days and the IC50 [2, 8] was 9.7 nM.
In the case of `CO[C@H]1C[C@@H]2CC[C@@H](C)[C@@](O)(O2)C(=O)C(=O)N2CCCC[C@H]2C(=O)O[C@H]([C@H](C)C[C@@H]2CC[C@@H](O)[C@H](OC)C2)CC(=O)[C@H](C)/C=C(\C)[C@@H](O)[C@@H](OC)C(=O)[C@H](C)C[C@H](C)/C=C/C=C/C=C/1C` [rapamycin], the “effect in the adjuvant arthritis model (in words)” value (adjuvant arthritis) is listed as “effective”, the IC50 ([2]; Mus musculus, Lymphocyte) is listed as 0.4 to 6.8 nM and the “formation of IgE-like antibodies (in words)” value (IgE-like antibodies) is listed as “effectively inhibited”. For the same compound, the “effect in the experimental allergic encephalomyelitis model (in words)” value [5] was “effective” and the “antifungal activity (in words)” value (Candida albicans) was “antifungal activity”.
For `CO[C@H]1C[C@@H]2CC[C@@H](C)[C@@](O)(O2)C(=O)C(=O)N2CCCC[C@H]2C(=O)O[C@H]([C@H](C)C[C@@H]2CCC(=O)[C@H](OC)C2)CC(=O)[C@H](C)/C=C(\C)[C@@H](OC(=O)CN(C)C)[C@@H](OC)C(=O)[C@H](C)C[C@H](C)/C=C/C=C/C=C/1C` [Example 3, 42-Oxorapamycin-31-ester with 31-N,N-dimethylglycine maleate salt], the “Skin graft survival time” value ([1]; maleate salt) was 9.2 ± 1.3 days and the IC50 [2, 7] was 14.4 nM.
With `CO[C@H]1C[C@@H]2CC[C@@H](C)[C@@](O)(O2)C(=O)C(=O)N2CCCC[C@H]2C(=O)O[C@H]([C@H](C)C[C@@H]2CC[C@@H](OC(=O)C3(N)CCCC3)[C@H](OC)C2)CC(=O)[C@H](C)/C=C(\C)[C@@H](O)[C@@H](OC)C(=O)[C@H](C)C[C@H](C)/C=C/C=C/C=C/1C` [Example 10, Rapamycin 42-ester with 1-aminocyclopentane carboxylic acid] the “Skin graft survival time” value [1] was 10.5 ± 0.6 days and 10.2 ± 1.0 days and the IC50 [2, 8] was 6 nM.
